Laboratory results: patent publication US20220073536A1 (Rigel Pharmaceuticals, Inc., priority 2003, published 2022)
Counter-ions that a name gives are not always drawn. Each block holds one compound with its values, some of them ahead of it.

Experiments:
[1] = system: cultured human mast cells (CHMC); assay: CHMC low cell density ionomycin activation: tryptase assay; format: cell-based; details: read-out: LD Tryptase, CHMC, Iono, 3 pt
[2] = system: cultured human mast cells (CHMC); assay: CHMC low cell density IgE activation: tryptase assay; format: cell-based; details: IgE activation
Procedure, shortened: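 Low-density CHMC, 1000-1500 cells/well in MT; 1 hr 37 °C; anti-IgE challenge 30 min 37 °C; supernatant tryptase via fluorogenic substrate, 30 min RT.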

[3] = Homo sapiens, Mast cell, low cell density CHMC, tryptase, 3 pt
[4] = Homo sapiens, Mast cell, low cell density CHMC, tryptase, 3 pt, read-out: LD Tryptase, CHMC, IgE, 3 pt
[5] = Homo sapiens, Mast cell, low cell density CHMC, tryptase, 8 pt, read-out: LD Tryptase, CHMC, IgE, 8 pt
[6] = Homo sapiens, Mast cell, low cell density CHMC, tryptase release, 3 point
[7] = Homo sapiens, Mast cell, low cell density CHMC, tryptase release, 3 point, read-out: LD Tryptase, CHMC, IgE, 3 pt
[8] = Homo sapiens, Mast cell, low cell density, 3 pt
[9] = Homo sapiens, Mast cell, low cell density, 3 pt, read-out: LD Tryptase, CHMC, IgE, 3 pt
[10] = Homo sapiens, Mast cell, low cell density CHMC, tryptase release, 8 point, read-out: LD Tryptase, CHMC, IgE, 8 pt
[11] = low cell density CHMC, tryptase, 3 pt
[12] = low cell density CHMC, tryptase, 3 pt, read-out: LD Tryptase, CHMC, IgE, 3 pt
[13] = low cell density CHMC, tryptase release, 3 point
[14] = low cell density CHMC, tryptase release, 3 point, read-out: LD Tryptase, CHMC, IgE, 3 pt
[15] = low cell density CHMC, tryptase release, 8 point, read-out: LD Tryptase, CHMC, IgE, 8 pt
[16] = Homo sapiens, Mast cell, low cell density CHMC, tryptase release, 3 pt
[17] = Homo sapiens, Mast cell, low cell density CHMC, tryptase release, 3 pt, read-out: LD Tryptase, CHMC, IgE, 3 pt
[18] = Homo sapiens, Mast cell, low cell density CHMC, tryptase release, 8 pt, read-out: LD Tryptase, CHMC, IgE, 8 pt
[19] = low cell density, 3 pt, read-out: LD Tryptase, CHMC, IgE, 3 pt
[20] = low cell density, 8 pt, read-out: LD Tryptase, CHMC, IgE, 8 pt

Compound: CCn1cc2ccc(Nc3ncc(F)c(Nc4ccc5c(c4)NC(=O)C(C)(C)O5)n3)cc2n1 [Compound 761, N4-(2,2-Dimethyl-3-oxo-4H-benz[1,4]oxazin-6-yl)-N2-(2-ethylindazol-6-yl)-5-fluoro-2,4-pyrimidinediamine]
IC50 [1, 3]: > 10 µM
IC50 [2, 4]: < 10 µM
IC50 [2, 5]: < 10 µM

Compound: COc1ccc(N(C)c2nc(Cl)ncc2F)cc1Cl [Compound 660]
IC50 [1, 6]: > 10 µM
IC50 [2, 7]: > 10 µM

Compound: COc1cc(Nc2ncc(F)c(N(C)c3ccc(OC)c(OC)c3)n2)cc(OC)c1 [Compound 434]
IC50 [1, 3]: > 10 µM
IC50 [2, 4]: < 10 µM

Compound: CNC(=O)c1ccc(Nc2ncc(F)c(Nc3ccc(OC)c(OC)c3)n2)cc1Cl [Compound 464, N2-[3-Chloro-4-(N-methylamino)carbonylphenyl]-N4-(3,4-dimethoxyphenyl)-5-fluoro-2,4-pyrimidinediamine]
IC50 [1, 8]: > 10 µM
IC50 [2, 9]: < 10 µM

Compound: COc1ccc(Nc2ncc(F)c(Nc3ccc(OC)c(OC)c3)n2)cc1Cl [Compound 425, N2-(3-Chloro-4-methoxyphenyl)-N4-(3,4-dimethoxyphenyl)-5-fluoro-2,4-pyrimidinediamine]
IC50 [1, 3]: > 10 µM
IC50 [2, 4]: < 10 µM
IC50 [2, 5]: < 10 µM

Compound: CN1CCOc2cc(Nc3nc(Nc4ccc(-c5cnco5)cc4)ncc3F)ccc21 [Compound 229]
IC50 [1, 16]: > 10 µM
IC50 [2, 17]: < 10 µM
IC50 [2, 18]: < 10 µM

Compound: O=C1COc2ccc(Nc3nc(Nc4ccc(-c5cnco5)cc4)ncc3F)cc2N1 [Compound 224]
IC50 [1, 16]: > 10 µM
IC50 [2, 17]: < 10 µM
IC50 [2, 18]: < 10 µM

Compound: CN(c1nc(Nc2cccc(-c3ncco3)c2)ncc1F)C1CCC1 [Compound 1179, N4-Cyclobutyl-5-fluoro-N4-methyl-N2-[3-(oxazol-2-yl)phenyl]-2,4-pyrimidinediamine]
IC50 [1, 3]: > 10 µM
IC50 [2, 4]: < 10 µM

Compound: CNC(=O)c1cc(Nc2ncc(F)c(N(C)c3cc(C)c(Cl)c(C)c3)n2)ccc1Cl [Compound 610, N4-(4-Chloro-3,5-dimethylphenyl)-N2-[4-chloro-3-(N-methylamino)carbonylphenyl]-5-fluoro-N4-methyl-2,4-pyrimidinediamine]
IC50 [1, 6]: > 10 µM
IC50 [2, 7]: > 10 µM

Compound: COC(=O)CCNC(=O)c1ccc(Nc2ncc(F)c(Nc3ccc4c(c3)NC(=O)[C@H](C)O4)n2)cc1 [Compound 1303, (S)-5-Fluoro-N2-[4-[N-(2-methoxycarbonylethyl)aminocarbonyl]phenyl]-N4-(2-methyl-3-oxo-2H,4H-benz[1,4]oxazin-6-yl)-2,4-pyrimidinediamine]
IC50 [1, 3]: > 10 µM
IC50 [2, 4]: < 10 µM
IC50 [2, 5]: < 10 µM

Compound: CNC(=O)COc1cccc(Nc2ncc(F)c(Nc3ccc(Cl)c(C(=O)NC)c3)n2)c1 [Compound 477, N4-[4-Chloro-3-(N-methylamino)carbonylphenyl]-5-fluoro-N2-[3-(N-methylamino)carbonylmethyleneoxyphenyl]-2,4-pyrimidinediamine]
IC50 ([1]; low cell density, 3 pt): > 10 µM
IC50 [2, 19]: < 10 µM
IC50 [2, 20]: < 10 µM

Now from value to compound:

IC50 [1, 8]: > 10 µM
IC50 [2, 9]: < 10 µM
Compound: COC(=O)c1cc(Nc2ncc(F)c(Nc3cccc(O)c3)n2)cc(-c2ncco2)c1 [Compound 518, 5-Fluoro-N4-(3-hydroxyphenyl)-N2-[5-methoxycarbonyl-3-(oxazol-2-yl)phenyl]-2,4-pyrimidinediamine]

IC50 [1, 6]: < 10 µM
IC50 [2, 7]: < 10 µM
IC50 [2, 10]: < 10 µM
Compound: COc1cc(N(C)c2nc(Nc3ccc(-c4cocn4)cc3)ncc2F)ccc1Cl [Compound 606, N4-(4-Chloro-3-methoxyphenyl)-5-fluoro-N4-methyl-N2-[4-(oxazol-4-yl)phenyl]-2,4-pyrimidinediamine]

IC50 [1, 3]: > 10 µM
IC50 [2, 4]: > 10 µM
Compound: COc1cc(C(N)=O)c(Nc2ncc(F)c(N(C)C3CCC3)n2)cc1OCc1ccccc1 [Compound 1153, N2-(2-Aminocarbonyl-5-benzoxy-4-methoxyphenyl)-N4-cyclobutyl-5-fluoro-N4-methyl-2,4-pyrimidinediamine]

IC50 [1, 3]: > 10 µM
IC50 [2, 4]: < 10 µM
IC50 [2, 5]: < 10 µM
Compound: OC1CCOc2ccc(Nc3nc(Nc4ccc(-c5ncco5)cc4)ncc3F)cc21 (stereo not drawn) [Compound 1291, 5-Fluoro-N4-(4-hydroxy-3,4-dihydro-2H-1-benzopyran-6-yl)-N2-[4-(oxazol-2-yl)phenyl]-2,4-pyrimidinediamine]

IC50 [1, 11]: > 10 µM
IC50 [2, 12]: < 10 µM
IC50 ([2]; low cell density CHMC, tryptase, 8 pt, read-out: LD Tryptase, CHMC, IgE, 8 pt): < 10 µM
Compound: N4- (2,2-Dimethyl-3-oxo-4H-benz[1,4]oxazin-6-yl)-5-fluoro-N2-(1-methylindazol-6-yl)-2,4-pyrimidinediamine p-Hydroxybenzenesulfonic Acid Salt [Compound 768]

IC50 [1, 11]: > 10 µM
IC50 [2, 12]: < 10 µM
Compound: CNC(=O)COc1cccc(Nc2ncc(F)c(N(CC(=O)OC)c3ccc4c(c3)OCCO4)n2)c1 [Compound 446, N4-(3,4-Ethylenedioxyphenyl)-5-fluoro-N4-(methoxycarbonylmethyl)-N2-[3-(N-methylamino)carbonylmethyleneoxyphenyl]-2,4-pyrimidinediamine]

IC50 [1, 13]: > 10 µM
IC50 [2, 14]: < 10 µM
IC50 [2, 15]: < 10 µM
Compound: CNC(=O)Cn1ccc2ccc(Nc3ncc(F)c(Nc4ccc5c(c4)OCCO5)n3)cc21 [Compound 649, N4-(3,4-Ethylenedioxyphenyl)-5-fluoro-N2-[1-(N-methylamino)carbonylmethyleneindol-6-yl]-2,4-pyrimidinediamine]

IC50 [1, 16]: > 10 µM
IC50 [2, 17]: < 10 µM
Compound: COc1ccc(Nc2nc(Nc3ccc4c(cnn4CCCO)c3)ncc2F)cc1Cl [Compound 827, N4-(3-Chloro-4-methoxyphenyl)-5-fluoro-N2-[1-(3-hydroxypropyl)indazol-5-yl]-2,4-pyrimidinediamine p-Toluenesulfonic Acid Salt]

IC50 [1, 3]: > 10 µM
IC50 [2, 4]: < 10 µM
Compound: COC(=O)CN(c1ccc2c(c1)OCCO2)c1nc(Nc2cc(C)cc(C)c2)ncc1F [Compound 441]

IC50 ([1]; low cell density, 3 pt): < 10 µM
IC50 [2, 19]: < 10 µM
IC50 [2, 20]: < 10 µM
Compound: CCOC(=O)C(C)(C)Oc1ccc(Nc2nc(Nc3ccc(C(=O)NC)c(Cl)c3)ncc2F)cc1Cl [Compound 467, N4-[3-Chloro-4-(ethoxycarbonyl-1,1-dimethylmethyleneoxy)phenyl]-N2-[3-chloro-4-(N-methylamino)carbonylphenyl]-5-fluoro-2,4-pyrimidinediamine]

IC50 ([1]; Homo sapiens, Mast cell, low cell density CHMC, tryptase readout, 3 pt): > 10 µM
IC50 ([2]; Homo sapiens, Mast cell, low cell density CHMC, tryptase readout, 3 pt, read-out: LD Tryptase, CHMC, IgE, 3 pt): < 10 µM
Compound: Cc1cc(C)cc(Nc2ncc(F)c(Nc3cccc(NC4=NCCN4)c3)n2)c1 [Compound 1095, N2-(3,5-Dimethylphenyl)-5-fluoro-N4-[3-(N-2-imidazolin-2-yl)aminophenyl]-2,4-pyrimidinediamine]

IC50 [1, 13]: < 10 µM
IC50 [2, 14]: < 10 µM
IC50 [2, 15]: < 10 µM
Compound: COC(=O)COc1ccc(Nc2nc(Nc3ccc4cc[nH]c4c3)ncc2F)cc1Cl [Compound 631, N4-(3-Chloro-4-methoxycarbonylmethyleneoxyphenyl)-5-fluoro-N2-(indol-6-yl)-2,4-pyrimidinediamine]

IC50 [1, 6]: > 10 µM
IC50 [2, 7]: < 10 µM
Compound: CNC(=O)c1ccc(Nc2ncc(F)c(N(C)c3cc(C)c(Cl)c(C)c3)n2)cc1Cl [Compound 613, N4-(4-Chloro-3,5-dimethylphenyl)-N2-[3-chloro-4-(N-methylamino)carbonylphenyl]-5-fluoro-N4-methyl-2,4-pyrimidinediamine]

IC50 [1, 6]: > 10 µM
IC50 [2, 7]: > 10 µM
Compound: COc1cc(N(C)c2nc(Cl)ncc2F)ccc1Cl [Compound 659]

IC50 [1, 6]: < 10 µM
IC50 [2, 7]: < 10 µM
IC50 [2, 10]: < 10 µM
Compound: Cc1cc(N(C)c2nc(Nc3ccc4[nH]ccc4c3)ncc2F)cc(C)c1Cl [Compound 594]

IC50 ([1]; low cell density CHMC, tryptase readout, 3 pt): > 10 µM
IC50 ([2]; low cell density CHMC, tryptase readout, 3 pt, read-out: LD Tryptase, CHMC, IgE, 3 pt): < 10 µM
Compound: CCOc1c(C)cc(Nc2ncc(F)c(Nc3ccc4c(n3)NC(=O)C(C)(C)O4)n2)cc1Cl [Compound 1010, N2-(3-Chloro-4-ethoxy-5-methylphenyl)-N4-(2,2-dimethyl-3-oxo-4H-5-pyrid[1,4]oxazin-6-yl)-5-fluoro-2,4-pyrimidinediamine]

IC50 [1, 3]: > 10 µM
IC50 [2, 4]: < 10 µM
Compound: COc1cc(Nc2nc(Nc3cccc(N4CCN(C(C)=O)CC4)c3)ncc2F)cc(OC)c1 [Compound 428, N2-[3-(4-Acetylpiperazino)phenyl]-N4-(3,5-dimethoxyphenyl)-5-fluoro-2,4-pyrimidinediamine]
